Values joined by “and” are separate entries in the source; they are usually repeats but may differ in a detail not shown here. Equal values may be shown once.
Columns and labels:
EGFR T790M = target: T1, EGFR T790M (Homo sapiens, UniProt P00533, T790M); assay: Kinase inhibition assay (fluorescent mobility-shift assay); assay type: biochemical; set-up: Kinase activity: unit not given here; conditions: for Kinase activity: T790M, n=1-3;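 for all read-outs here: Cell-free assay with recombinant human EGFR T790M enzyme, compound preincubated with the kinase at room temperature before the reaction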
T1 construct: EGFR T790M (amino acids 668–1210, #PR8052A); purchased Thermo Fisher PR8052A
T1 sequence (P00533 668-1210 T790M): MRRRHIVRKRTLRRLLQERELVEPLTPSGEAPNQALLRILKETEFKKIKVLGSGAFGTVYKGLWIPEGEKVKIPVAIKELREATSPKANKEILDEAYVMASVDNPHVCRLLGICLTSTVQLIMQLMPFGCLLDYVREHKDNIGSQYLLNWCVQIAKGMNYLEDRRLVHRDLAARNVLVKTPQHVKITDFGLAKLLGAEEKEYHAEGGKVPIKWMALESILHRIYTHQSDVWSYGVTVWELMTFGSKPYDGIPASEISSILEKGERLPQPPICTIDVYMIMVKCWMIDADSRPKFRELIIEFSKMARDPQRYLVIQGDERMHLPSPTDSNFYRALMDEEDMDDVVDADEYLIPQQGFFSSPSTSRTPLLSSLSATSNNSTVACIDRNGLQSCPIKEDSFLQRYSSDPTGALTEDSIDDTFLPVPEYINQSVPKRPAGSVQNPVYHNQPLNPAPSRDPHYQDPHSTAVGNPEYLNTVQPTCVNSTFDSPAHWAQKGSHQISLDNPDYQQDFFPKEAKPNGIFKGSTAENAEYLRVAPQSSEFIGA

MCF-7 cells = assay: FACS assay in cultured cells
Description: The FACS assay was performed according to the reported literatures[67],[68]. Briefly, the cultured cells were seeded on the petri dish and counted using Count star BioMed automated cell counter. Around 10^6 live-cells were collected and were pelleted (2000×g, 3 min), followed by washing with PBS (2x). Cells were then resuspended in PBS buffer containing 0.1% BSA (1 × 10^6 cells/mL). […] The cell suspension was resuspended in PBS and analyzed with a FACSVerse^TM flow cytometer (BD Biosciences, LSRFortessa). About 10,000 events per tube were analyzed and the mean fluorescence intensity was detected and analyzed.
For the FACS assay with EGFR antibody, around 10^6 live-cells were collected and washed with PBS (2x). The cells were fixed by 400 µL 4% paraformaldehyde for 15 min at room temperature, followed by permeabilization with 0.1% Triton X-100 for 10 min and blocking with 5% BSA for 30 min. […] The cells were then washed with 0.5% BSA/PBS (3x) and resuspended in 400 µL of 0.1% BSA/PBS. […] The resuspended cell suspension was then analyzed on a FACSVerseTM flow cytometer (BD Biosciences, LSRFortessa). Nonspecific fluorescence binding was omitted by Rabbit mAb IgG isotype control (#3900, CST, 1:100) and the corresponding mean fluorescence was subtracted from the signal measured with each primary antibody. About 10,000 events per tube were analyzed and the mean fluorescence intensity was detected and analyzed.
Subsequently, the treated cells were incubated for 30 min at 37 °C, followed by washing with PBS buffer three times. […] Finally, the co-stained cells were washed with 0.5% BSA/PBS for three times and resuspended in 400 µL of 0.1% BSA/PBS. The obtained cell suspension was ready for analysis. Nonspecific fluorescence binding was omitted by Rabbit mAb IgG isotype control (#3900, CST, 1:100) as described above.
Nonspecific fluorescence binding was omitted by Rabbit mAb IgG isotype control (#3900, CST, 1:100). […] After incubation for another 30 min at room temperature, the co-stained cells were washed with 0.5% BSA/PBS for three times and resuspended in 400 µL of 0.1% BSA/PBS. The obtained cell suspension was ready for analysis. Nonspecific fluorescence binding was omitted by Rabbit mAb IgG isotype control (#3900, CST, 1:100) as described above.
The cells were seeded on the petri dish and cultured at the normal condition with 10% FBS, and that was changed to serum-free condition for 24 h when the cells proliferated at ~80% confluence. […] Nonspecific fluorescence binding was omitted by Rabbit mAb IgG isotype control (#3900, CST, 1:100) as described above.

A431 = assay: Western blot of EGFR activation and downstream AKT and ERK1/2 phosphorylation; assay type: cell-based, human
Description: (§1) Western blotting analysis was performed to investigate the expression of EGFR and downstream signaling pathway in various cancer cells. Cells were added at a density of 5 × 10^5 per well in six-well plates and serum-starved in DMEM without FBS. […] After a PBS washing step, the cells were harvested and lysed in RIPA lysis buffer (Thermo Scientific, #89900) on ice for 20 min. After sonication, cell lysates were centrifuged at 12,000×g at 4 °C for 20 min. The supernatant was collected and protein concentration was determined by a BCA protein quantitation kit (Vazyme) and normalized to 2 mg/mL. Subsequently, 20 µL of protein sample was loaded to each lane and resolved on a 10% SDS-PAGE gel. After that, proteins on the gel were transferred onto polyvinylidene difluoride (PVDF) membranes (0.45 µm, Amersham Bioscience). PVDF membranes were blocked with 5% BSA blocking solution for 2 h at room temperature, followed by incubation with different primary antibodies (4 °C, overnight), including EGFR (#4267, 1:1000), phospho-EGFR (#3777, 1:1000), Akt (#4685, 1:1000), phospho-Akt (#4060, 1:1000), ERK1/2 (#4695, 1:1000), phospho-ERK1/2 (#4370, 1:2000) and GAPDH (#5174, 1:2000). Next, the membranes were washed by TBST buffer (Tris buffer with 0.1% Tween-20) for three times, followed by incubation with anti-rabbit IgG (HRP-linked antibody, #7074, 1:5000) for 1 h at room temperature. Finally, the blots were washed in PBST and immunoreactive proteins were detected using a luminal solution with ECL enhancer and H2O2 by ChemiDoc MP (BioRad) with Image Lab 6.0 software. The band density of each band was quantified and normalized to that of the corresponding GAPDH band to correct the possible differences in the content of protein loading. Each experiment was repeated 3 times for statistical analysis, and uncropped blots are in Source Data.

HCC827 = assay: as above; assay type: cell-based, human
Description: as §1

A549 = assay: as above; assay type: cell-based, human; conditions: for p-kinase / kinase pAKT/AKT / p-kinase / kinase pEGFR/EGFR / p-kinase / kinase pERK/ERK: Fig. 2j A549, DMSO = 1, n=1-3
Description: as §1

Hela = assay: as above; assay type: cell-based, human; conditions: HX103 0 to 10 µM, EGF 25 ng/mL
Description: as §1

H1975 = assay: as above; assay type: cell-based, human; conditions: for p-kinase / kinase pAKT/AKT / p-kinase / kinase pEGFR/EGFR / p-kinase / kinase pERK/ERK: Fig. 2h H1975, DMSO = 1, n=1-3
Description: as §1

PC-9 cells = assay: MTT cytotoxicity assay; assay type: cell-based; conditions: Homo sapiens, EGFR 19del, 48 h, n=3
[1] = Fig. 2i A431, concentration 0.3 (unit not given), DMSO = 1, n=1-3
[2] = Fig. 2i A431, concentration 1 (unit not given), DMSO = 1, n=1-3
[3] = Fig. 2i A431, concentration 3 (unit not given), DMSO = 1, n=1-3
[4] = Fig. 2i A431, concentration 10 (unit not given), DMSO = 1, n=1-3
[5] = concentration 0.3 (unit not given)
[6] = concentration 1 (unit not given)
[7] = concentration 3 (unit not given)
[8] = concentration 10 (unit not given)

decrease of inhibition toward T790M compared to 19del (EGFR T790M; IC50 T790M vs 19del): ~ 750 fold
decrease of inhibition toward T790M compared to L858R (EGFR T790M; IC50 T790M vs L858R): ~ 650 fold
Kinase activity (EGFR T790M; Log [HX103 (M)] -4.5): 14.55 and 14.95 and 12.5
Kinase activity (EGFR T790M; Log [HX103 (M)] -5): 16 and 19.07 and 16.33
Kinase activity (EGFR T790M; Log [HX103 (M)] -5.5): 24.68 and 25.89 and 23.04
Kinase activity (EGFR T790M; Log [HX103 (M)] -6): 50.45 and 49.72 and 50.33
Kinase activity (EGFR T790M; Log [HX103 (M)] -6.5): 74.42 and 70.48 and 67.65
Kinase activity (EGFR T790M; Log [HX103 (M)] -7): 85.94 and 86.13 and 86.01
Kinase activity (EGFR T790M; Log [HX103 (M)] -7.5): 96.44 and 90.88 and 91.86
Kinase activity (EGFR T790M; Log [HX103 (M)] -8): 104.4 and 100.7 and 101.1
Kinase activity (EGFR T790M; Log [HX103 (M)] -8.5): 97.33 and 103.4 and 97.96
Kinase activity (EGFR T790M; Log [HX103 (M)] -9): 98.09 and 98.85 and 98.65
IC50 (EGFR T790M; n = 3): 977 nM
SMILES: COc1cc2c(Nc3ccc(F)c(Cl)c3)ncnc2cc1OCCCNc1ccc(S(=O)(=O)N(C)C)c2nonc12 [HX103]
normalized MFI of HX103 labeling (MCF-7 cells; HX103 5 µM, 30 min, replicates n=1-3): 25.1073% and 53.6481% and 30.8069%
EGFR(+) HX103 (+) (%) (MCF-7 cells; HX103 5 µM, replicates n=1-3): 0.04% and 0.02% and 0.09%
EGFR(+) HX103 (+) (%) AVE (MCF-7 cells; MCF-7, AVE of n=3): 0.05%
HX103 (+) (%) AVE (MCF-7 cells; MCF-7, AVE of n=3): 0.5297%
EGFR(+) HX103 (+) (%) (MCF-7 cells; MCF-7, replicates n=1-3): 0.09% and 0.04% and 0.02%
HX103(+) (%) (MCF-7 cells; MCF-7, replicates n=1-3): -0.051% and 1.21% and 0.43%
p-kinase / kinase pAKT/AKT (A431; [1]): 0.604 and 0.491 and 0.502
p-kinase / kinase pERK/ERK (A431; [1]): 0.593 and 0.802 and 0.793
p-kinase / kinase pAKT/AKT (A431; [2]): 0.33 and 0.312 and 0.321
p-kinase / kinase pERK/ERK (A431; [2]): 0.301 and 0.442 and 0.417
p-kinase / kinase pAKT/AKT (A431; [3]): 0.264 and 0.189 and 0.222
p-kinase / kinase pERK/ERK (A431; [3]): 0.169 and 0.13 and 0.175
p-kinase / kinase pAKT/AKT (A431; [4]): 0.241 and 0.197 and 0.219
p-kinase / kinase pEGFR/EGFR (A431; [4]): 0.067 and 0.066 and 0.064
effect on wild-type EGFR phosphorylation (A431; HX103 0 to 10 µM, EGF 25 ng/mL): significantly inhibited
p-kinase / kinase pAKT/AKT (HCC827; Fig. 2g HCC827, concentration 0.3 (unit not given), DMSO = 1, n=1-3): 0.4984 and 0.298 and 0.4432
p-kinase / kinase pAKT/AKT (HCC827; Fig. 2g HCC827, concentration 1 (unit not given), DMSO = 1, n=1-3): 0.1684 and 0.1251 and 0.1468
p-kinase / kinase pERK/ERK (HCC827; Fig. 2g HCC827, concentration 10 (unit not given), DMSO = 1, n=1-3): 0.1947 and 0.3677 and 0.3512
effect on phosphorylation of EGFR and downstream proteins (HCC827; HX103 0 to 10 µM, EGF 25 ng/mL): inhibited the phosphorylation of EGFR and the downstream proteins
p-kinase / kinase pAKT/AKT (A549; [5]): 0.202 and 0.332 and 0.222
p-kinase / kinase pEGFR/EGFR (A549; [5]): 0.116 and 0.065 and 0.105
p-kinase / kinase pERK/ERK (A549; [5]): 0.558 and 0.86 and 0.689
p-kinase / kinase pAKT/AKT (A549; [6]): 0.118 and 0.103 and 0.095
p-kinase / kinase pERK/ERK (A549; [6]): 0.486 and 0.455 and 0.485
p-kinase / kinase pEGFR/EGFR (A549; [7]): 0.07 and 0.045 and 0.073
p-kinase / kinase pERK/ERK (A549; [7]): 0.34 and 0.535 and 0.512
p-kinase / kinase pAKT/AKT (A549; [8]): 0.014 and 0.013 and 0.015
p-kinase / kinase pERK/ERK (A549; [8]): 0.39 and 0.424 and 0.512
effect on wild-type EGFR phosphorylation (A549; HX103 0 to 10 µM, EGF 25 ng/mL): significantly inhibited
effect on wild-type EGFR phosphorylation (Hela): significantly inhibited
p-kinase / kinase pAKT/AKT (H1975; [5]): 0.698 and 0.724 and 0.636
p-kinase / kinase pEGFR/EGFR (H1975; [5]): 0.558 and 0.543 and 0.573
p-kinase / kinase pERK/ERK (H1975; [5]): 1.210 and 0.879 and 1.031
p-kinase / kinase pAKT/AKT (H1975; [6]): 0.488 and 0.317
p-kinase / kinase pEGFR/EGFR (H1975; [6]): 0.199 and 0.313 and 0.331
p-kinase / kinase pERK/ERK (H1975; [6]): 0.535 and 0.443 and 0.459
p-kinase / kinase pAKT/AKT (H1975; [7]): 0.579 and 0.573 and 0.560
p-kinase / kinase pERK/ERK (H1975; [7]): 0.840 and 0.618 and 0.696
p-kinase / kinase pAKT/AKT (H1975; [8]): 0.468 and 0.342 and 0.500
p-kinase / kinase pEGFR/EGFR (H1975; [8]): 0.219 and 0.161 and 0.276
p-kinase / kinase pERK/ERK (H1975; [8]): 0.660 and 0.681 and 0.939
effect on phosphorylation of EGFR and downstream proteins (H1975; HX103 0 to 10 µM, EGF 25 ng/mL): a certain resistance
IC50 (PC-9 cells): 1800 nM

Reference: paper PMC9663578, “A fluorogenic probe for predicting treatment response in non-small cell lung cancer with EGFR-activating mutations” (Nature Communications, 2022)
